± gives the expanded uncertainty stated by the source.
Experiment: activity coefficient (dimensionless); of the first substance listed, at infinite dilution; xn = mol fraction of the nth substance listed
Conditions: 101.33 kPa, Liquid, Chromatography, x1 = 0

Row | Structure (SMILES) | activity coefficient (313.15 K) | activity coefficient (323.15 K) | activity coefficient (333.15 K) | activity coefficient (343.15 K) | activity coefficient (353.15 K)
1 | CCc1ccccc1 [ethylbenzene] + CCCCCCn1cc[n+](C)c1C.O=S(=O)([N-]S(=O)(=O)C(F)(F)F)C(F)(F)F | 1.34 ± 0.14 | 1.36 ± 0.14 | 1.38 ± 0.14 | 1.4 ± 0.14 | 1.42 ± 0.15
2 | CC(C)=O [acetone] + CCCCCCn1cc[n+](C)c1C.O=S(=O)([N-]S(=O)(=O)C(F)(F)F)C(F)(F)F | 0.4 ± 0.05 | 0.42 ± 0.05 | 0.43 ± 0.05 | 0.45 ± 0.05 | 0.46 ± 0.05
3 | ClC(Cl)(Cl)Cl [tetrachloromethane] + CCCCCCn1cc[n+](C)c1C.O=S(=O)([N-]S(=O)(=O)C(F)(F)F)C(F)(F)F | 2.31 ± 0.24 | 2.26 ± 0.24 | 2.19 ± 0.23 | 2.15 ± 0.23 | 2.09 ± 0.22
4 | CC#N [acetonitrile] + CCCCCCn1cc[n+](C)c1C.O=S(=O)([N-]S(=O)(=O)C(F)(F)F)C(F)(F)F | 0.45 ± 0.05 | 0.46 ± 0.05 | 0.47 ± 0.05 | 0.48 ± 0.05 | 0.48 ± 0.05
5 | C1=CCCCC1 [cyclohexene] + CCCCCCn1cc[n+](C)c1C.O=S(=O)([N-]S(=O)(=O)C(F)(F)F)C(F)(F)F | 3.36 ± 0.35 | 3.29 ± 0.35 | 3.19 ± 0.34 | 3.06 ± 0.32 | 2.93 ± 0.31
6 | C1CCCCC1 [cyclohexane] + CCCCCCn1cc[n+](C)c1C.O=S(=O)([N-]S(=O)(=O)C(F)(F)F)C(F)(F)F | 5.33 ± 0.56 | 5.14 ± 0.54 | 4.99 ± 0.52 | 4.88 ± 0.51 | 4.74 ± 0.5
7 | CCCCCCCCCC [decane] + CCCCCCn1cc[n+](C)c1C.O=S(=O)([N-]S(=O)(=O)C(F)(F)F)C(F)(F)F | 26.8 ± 2.8 | 25 ± 2.6 | 23.3 ± 2.5 | 21.6 ± 2.3 | 20.1 ± 2.1
8 | CCCCCCC [heptane] + CCCCCCn1cc[n+](C)c1C.O=S(=O)([N-]S(=O)(=O)C(F)(F)F)C(F)(F)F | 10.2 ± 1.1 | 9.79 ± 1 | 9.47 ± 1 | 9.2 ± 0.97 | 8.83 ± 0.93
9 | ClCCl [dichloromethane] + CCCCCCn1cc[n+](C)c1C.O=S(=O)([N-]S(=O)(=O)C(F)(F)F)C(F)(F)F | 0.74 ± 0.08 | 0.73 ± 0.08 | 0.72 ± 0.08 | 0.71 ± 0.07 | 0.7 ± 0.07
10 | ClC(Cl)Cl [trichloromethane] + CCCCCCn1cc[n+](C)c1C.O=S(=O)([N-]S(=O)(=O)C(F)(F)F)C(F)(F)F | 0.77 ± 0.08 | 0.78 ± 0.08 | 0.79 ± 0.08 | 0.81 ± 0.08 | 0.82 ± 0.08
11 | Cc1ccc(C)cc1 [1,4-dimethylbenzene] + CCCCCCn1cc[n+](C)c1C.O=S(=O)([N-]S(=O)(=O)C(F)(F)F)C(F)(F)F | 1.39 ± 0.14 | 1.42 ± 0.15 | 1.46 ± 0.15 | 1.5 ± 0.16 | 1.55 ± 0.16
12 | Cc1cccc(C)c1 [1,3-dimethylbenzene] + CCCCCCn1cc[n+](C)c1C.O=S(=O)([N-]S(=O)(=O)C(F)(F)F)C(F)(F)F | 1.34 ± 0.14 | 1.38 ± 0.14 | 1.41 ± 0.15 | 1.44 ± 0.15 | 1.47 ± 0.15
13 | C1CCOC1 [tetrahydrofuran] + CCCCCCn1cc[n+](C)c1C.O=S(=O)([N-]S(=O)(=O)C(F)(F)F)C(F)(F)F | 0.5 ± 0.06 | 0.51 ± 0.06 | 0.53 ± 0.06 | 0.55 ± 0.06 | 0.58 ± 0.06
14 | CCCCC [pentane] + CCCCCCn1cc[n+](C)c1C.O=S(=O)([N-]S(=O)(=O)C(F)(F)F)C(F)(F)F | 5.64 ± 0.59 | 5.55 ± 0.58 | 5.45 ± 0.57 | 5.33 ± 0.56 | 5.21 ± 0.55
15 | CCOC(C)=O [ethyl acetate] + CCCCCCn1cc[n+](C)c1C.O=S(=O)([N-]S(=O)(=O)C(F)(F)F)C(F)(F)F | 0.83 ± 0.09 | 0.86 ± 0.09 | 0.88 ± 0.09 | 0.91 ± 0.09 | 0.93 ± 0.09
16 | CCCCCCCCC [nonane] + CCCCCCn1cc[n+](C)c1C.O=S(=O)([N-]S(=O)(=O)C(F)(F)F)C(F)(F)F | 21.5 ± 2.3 | 19.8 ± 2.1 | 18.1 ± 1.9 | 16.6 ± 1.7 | 15.1 ± 1.6
17 | Cc1ccccc1C [1,2-dimethylbenzene] + CCCCCCn1cc[n+](C)c1C.O=S(=O)([N-]S(=O)(=O)C(F)(F)F)C(F)(F)F | 1.17 ± 0.12 | 1.19 ± 0.12 | 1.21 ± 0.12 | 1.22 ± 0.13 | 1.24 ± 0.13
18 | c1ccccc1 [benzene] + CCCCCCn1cc[n+](C)c1C.O=S(=O)([N-]S(=O)(=O)C(F)(F)F)C(F)(F)F | 0.72 ± 0.08 | 0.72 ± 0.08 | 0.74 ± 0.08 | 0.75 ± 0.08 | 0.76 ± 0.08
19 | CCCCCCCC [octane] + CCCCCCn1cc[n+](C)c1C.O=S(=O)([N-]S(=O)(=O)C(F)(F)F)C(F)(F)F | 12.8 ± 1.4 | 11.7 ± 1.2 | 10.6 ± 1.1 | 9.82 ± 1 | 9.16 ± 0.96
20 | CC1CCCCC1 [methylcyclohexane] + CCCCCCn1cc[n+](C)c1C.O=S(=O)([N-]S(=O)(=O)C(F)(F)F)C(F)(F)F | 6.48 ± 0.68 | 6.26 ± 0.66 | 6.06 ± 0.64 | 5.81 ± 0.61 | 5.62 ± 0.59
21 | Cc1ccccc1 [toluene] + CCCCCCn1cc[n+](C)c1C.O=S(=O)([N-]S(=O)(=O)C(F)(F)F)C(F)(F)F | 0.96 ± 0.1 | 0.99 ± 0.1 | 1.01 ± 0.1 | 1.03 ± 0.1 | 1.05 ± 0.11
22 | CCCCCC [hexane] + CCCCCCn1cc[n+](C)c1C.O=S(=O)([N-]S(=O)(=O)C(F)(F)F)C(F)(F)F | 7.6 ± 0.8 | 7.41 ± 0.78 | 7.16 ± 0.75 | 6.96 ± 0.73 | 6.78 ± 0.71
